In brackets after ≈: the same amount, converted by molar mass. Like-named read-outs stand apart in the source and are kept apart here.
What was measured:
Strep.haem. A 266 = experiment: agar serial dilution test; type: cell-based, Streptococcus haemolyticus; details: Streptococcus; agar serial dilution, 24 hours, 37° C.; read-out: minimal inhibitory concentration (MIC)
Dipl.pneum. L 54 = experiment: agar serial dilution test; type: cell-based, Diplococcus pneumoniae; details: Streptococcus pneumoniae; agar serial dilution, 24 hours, 37° C.; read-out: minimal inhibitory concentration (MIC)
Bac.Subt.ATCC 6633 = experiment: agar serial dilution test; type: cell-based, Bacillus subtilis; details: Bacillus subtilis, ATCC6633, 24 h, agar serial dilution, 24 hours, 37° C.; read-out: minimal inhibitory concentration (MIC)
Pseud.aerug. H 10 = experiment: agar serial dilution test; type: cell-based; details: agar serial dilution, 24 hours, 37° C.; read-out: minimal inhibitory concentration (MIC)
Haem.infl. A 1030 = experiment: micro serial dilution test; type: cell-based; details: 18 h, micro serial dilution (in brackets), about 18 hours, 30° C. or 37° C.; read-out: minimal inhibitory concentration (MIC)
Past.multo. A 723 = experiment: agar serial dilution test; type: cell-based, Pasteurella multocida; details: Pasteurella multocida; agar serial dilution, 24 hours, 37° C.; read-out: minimal inhibitory concentration (MIC)
Esch.coli U 20 = experiment: agar serial dilution test; type: cell-based, Escherichia coli; details: Escherichia coli
Bruc.melit. A 488 = experiment: microbe, parasite or virus in culture; type: cell-based; details: Brucella melitensis, 24 h, read-out: minimal inhibitory concentration (MIC)
Staph.aureus A 2000 [1] = experiment: agar serial dilution test; type: cell-based, Staphylococcus aureus; details: Staphylococcus aureus, A2000, 24 h, agar serial dilution, 24 hours, 37° C.; read-out: minimal inhibitory concentration (MIC)
Prot.morg. 2241 = experiment: agar serial dilution test; type: cell-based; details: 24 h, agar serial dilution, 24 hours, 37° C.; read-out: minimal inhibitory concentration (MIC)
Pseud.aerug. 2396 = experiment: agar serial dilution test; type: cell-based; details: agar serial dilution, 24 hours, 37° C.; read-out: minimal inhibitory concentration (MIC)
Kleb.pneum. A 809 = experiment: agar serial dilution test; type: cell-based, Klebsiella pneumoniae; details: Klebsiella pneumoniae; agar serial dilution, 24 hours, 37° C.; read-out: minimal inhibitory concentration (MIC)
Strep. faec. L 80 = experiment: agar serial dilution test; type: cell-based, Streptococcus faecalis; details: Enterococcus faecalis; agar serial dilution, 24 hours, 37° C.; read-out: minimal inhibitory concentration (MIC)
Salm.dubl. P 43 = experiment: agar serial dilution test; type: cell-based, Salmonella dublin; details: Salmonella enterica, read-out: minimal inhibitory concentration (MIC)
Staph.aureus A 2000 [2] = experiment: micro serial dilution test; type: cell-based, Staphylococcus aureus; details: Staphylococcus aureus, A2000, 18 h, micro serial dilution (in brackets), about 18 hours, 30° C. or 37° C.; read-out: minimal inhibitory concentration (MIC)
Salm.typh. R 127 = experiment: agar serial dilution test; type: cell-based; details: 24 h, 37° C., read-out: minimal inhibitory concentration (MIC)
Staph.aureus A 321 = experiment: agar serial dilution test; type: cell-based, Staphylococcus aureus; details: Staphylococcus aureus, A321, 24 h, agar serial dilution, 24 hours, 37° C.; read-out: minimal inhibitory concentration (MIC)
Staph.aureus A 355 [3] = experiment: agar serial dilution test; details: Staphylococcus aureus, A355, 24 h, read-out: minimal inhibitory concentration (MIC), agar serial dilution, 24 hours, 37° C.; penicillinase-producing strain
Prot.rettg. A 821 = experiment: agar serial dilution test; type: cell-based, Proteus rettgeri; details: Providencia rettgeri, 24 h, read-out: minimal inhibitory concentration (MIC)
Staph.aureus A 2001 [4] = experiment: agar serial dilution test; type: cell-based, Staphylococcus aureus; details: Staphylococcus aureus, A2001, 24 h, read-out: minimal inhibitory concentration (MIC)
Staph.aureus A 355 [5] = experiment: micro serial dilution test; type: cell-based, Staphylococcus aureus; details: Staphylococcus aureus, A355; micro serial dilution (in brackets), about 18 hours, 30° C. or 37° C.; penicillinase-producing strain; read-out: minimal inhibitory concentration (MIC)
Shig.equir. T 3 = experiment: agar serial dilution test; type: cell-based; details: 24 h, 37° C., read-out: minimal inhibitory concentration (MIC)
Prot.mirab. A 1200 = experiment: agar serial dilution test; type: cell-based, Proteus mirabilis; details: Proteus mirabilis, 24 h, read-out: minimal inhibitory concentration (MIC)
[6] = tested on: Pseud.aerug. Wyeth A 1058; experiment: agar serial dilution test; type: cell-based; details: agar serial dilution, 24 hours, 37° C.; read-out: minimal inhibitory concentration (MIC)
Staph.aureus A 2001 [7] = experiment: micro serial dilution test; type: cell-based, Staphylococcus aureus; details: Staphylococcus aureus, A2001, 18 h, micro serial dilution (in brackets), about 18 hours, 30° C. or 37° C.; read-out: minimal inhibitory concentration (MIC)
Prot.mirab. H 3 = experiment: agar serial dilution test; type: cell-based, Proteus mirabilis; details: Proteus mirabilis; agar serial dilution, 24 hours, 37° C.; read-out: minimal inhibitory concentration (MIC)
Prot.mirab. L 93 = experiment: agar serial dilution test; type: cell-based, Proteus mirabilis; details: Proteus mirabilis; agar serial dilution, 24 hours, 37° C.; read-out: minimal inhibitory concentration (MIC)
[8] = U20, agar serial dilution, 24 hours, 37° C., read-out: minimal inhibitory concentration (MIC)
[9] = agar serial dilution, 24 hours, 37° C.
[10] = U20, 24 h, read-out: minimal inhibitory concentration (MIC), agar serial dilution, 24 hours, 37° C.

CC(=O)OCC1=C(C(=O)O)N2C(=O)[C@@H](NC(=O)Cc3nc(-c4c(Cl)cccc4Cl)no3)[C@H]2SC1 [Example 11C, 7-{[3-(2,6-dichlorophenyl)-1,2,4-oxadiazol-5-yl]-acetamido}cephalosporanicacid]
MIC (Strep.haem. A 266): 0.03 µg/mL (≈ 0.0569 µM)
MIC (Dipl.pneum. L 54): 0.06 µg/mL (≈ 0.114 µM)
MIC (Bac.Subt.ATCC 6633): 0.12 µg/mL (≈ 0.228 µM)
MIC (Pseud.aerug. H 10): > 100 µg/mL
MIC (Haem.infl. A 1030): 23 µg/mL (≈ 43.6 µM)
MIC (Past.multo. A 723): 6 µg/mL (≈ 11.4 µM)
MIC (Esch.coli U 20; [8]): > 100 µg/mL
MIC (Bruc.melit. A 488): 6 µg/mL (≈ 11.4 µM)
MIC (Staph.aureus A 2000 [1]): 0.5 µg/mL (≈ 0.948 µM)
MIC (Prot.morg. 2241): > 100 µg/mL
MIC (Pseud.aerug. 2396): > 100 µg/mL
MIC (Kleb.pneum. A 809): 12.5 µg/mL (≈ 23.7 µM)
MIC (Strep. faec. L 80): 1.5 µg/mL (≈ 2.84 µM)
MIC (Salm.dubl. P 43; [9]): > 100 µg/mL
MIC (Staph.aureus A 2000 [2]): 0.18 µg/mL (≈ 0.341 µM)
MIC (Salm.typh. R 127): > 100 µg/mL
MIC (Staph.aureus A 321): 0.12 µg/mL (≈ 0.228 µM)
MIC (Staph.aureus A 355 [3]): 0.5 µg/mL (≈ 0.948 µM)
MIC (Prot.rettg. A 821; [9]): 3 µg/mL (≈ 5.69 µM)
MIC (Staph.aureus A 2001 [4]; [9]): 0.5 µg/mL (≈ 0.948 µM)
MIC (Staph.aureus A 355 [5]): 0.69 µg/mL (≈ 1.31 µM)
MIC (Shig.equir. T 3): 25 µg/mL (≈ 47.4 µM)
MIC (Prot.mirab. A 1200; [9]): > 100 µg/mL
MIC [6]: > 100 µg/mL
MIC (Staph.aureus A 2001 [7]): 0.25 µg/mL (≈ 0.474 µM)
MIC (Prot.mirab. H 3): > 100 µg/mL
MIC (Prot.mirab. L 93): 100 µg/mL (≈ 190 µM)

CC(=O)OCC1=C(C(=O)O)N2C(=O)[C@@H](NC(=O)Cc3noc(C)n3)[C@H]2SC1 [Example 11D, 7-[(5-methyl-1,2,4-oxadiazol-3-yl)-acetamido]-cephalosporanic acid]
MIC (Strep.haem. A 266): 0.5 µg/mL (≈ 1.26 µM)
MIC (Dipl.pneum. L 54): 1.5 µg/mL (≈ 3.78 µM)
MIC (Bac.Subt.ATCC 6633): 0.5 µg/mL (≈ 1.26 µM)
MIC (Pseud.aerug. H 10): > 100 µg/mL
MIC (Haem.infl. A 1030): 90 µg/mL (≈ 227 µM)
MIC (Past.multo. A 723): 6 µg/mL (≈ 15.1 µM)
MIC (Esch.coli U 20; [10]): 12.5 µg/mL (≈ 31.5 µM)
MIC (Bruc.melit. A 488): 10 µg/mL (≈ 25.2 µM)
MIC (Staph.aureus A 2000 [1]): 3 µg/mL (≈ 7.57 µM)
MIC (Prot.morg. 2241): > 100 µg/mL
MIC (Pseud.aerug. 2396): > 100 µg/mL
MIC (Kleb.pneum. A 809): 6 µg/mL (≈ 15.1 µM)
MIC (Strep. faec. L 80): 100 µg/mL (≈ 252 µM)
MIC (Salm.dubl. P 43; 24 h): 12.5 µg/mL (≈ 31.5 µM)
MIC (Staph.aureus A 2000 [2]): 1.2 µg/mL (≈ 3.03 µM)
MIC (Salm.typh. R 127): 12.5 µg/mL (≈ 31.5 µM)
MIC (Staph.aureus A 321): 1 µg/mL (≈ 2.52 µM)
MIC (Staph.aureus A 355 [3]): 6 µg/mL (≈ 15.1 µM)
MIC (Prot.rettg. A 821; [9]): 40 µg/mL (≈ 101 µM)
MIC (Staph.aureus A 2001 [4]; [9]): 3 µg/mL (≈ 7.57 µM)
MIC (Staph.aureus A 355 [5]): 6 µg/mL (≈ 15.1 µM)
MIC (Shig.equir. T 3): 1.5 µg/mL (≈ 3.78 µM)
MIC (Prot.mirab. A 1200): 12.5 µg/mL (≈ 31.5 µM)
MIC [6]: > 100 µg/mL
MIC (Staph.aureus A 2001 [7]): 0.6 µg/mL (≈ 1.51 µM)
MIC (Prot.mirab. H 3): 6 µg/mL (≈ 15.1 µM)
MIC (Prot.mirab. L 93): 6 µg/mL (≈ 15.1 µM)

CC1=C(C(=O)O)N2C(=O)[C@@H](NC(=O)Cc3nc(C)no3)[C@H]2SC1 [Example 11F, 7-[(3-methyl-1,2,4-oxadiazol-5-yl)-acetamido]-desacetoxycephalosporanic acid]
MIC (Strep.haem. A 266): 6 µg/mL (≈ 17.7 µM)
MIC (Dipl.pneum. L 54): 50 µg/mL (≈ 148 µM)
MIC (Bac.Subt.ATCC 6633): 6 µg/mL (≈ 17.7 µM)
MIC (Pseud.aerug. H 10): > 100 µg/mL
MIC (Haem.infl. A 1030): 125 µg/mL (≈ 369 µM)
MIC (Past.multo. A 723): 100 µg/mL (≈ 296 µM)
MIC (Esch.coli U 20; [8]): > 100 µg/mL
MIC (Bruc.melit. A 488): 6 µg/mL (≈ 17.7 µM)
MIC (Staph.aureus A 2000 [1]): 50 µg/mL (≈ 148 µM)
MIC (Prot.morg. 2241): > 100 µg/mL
MIC (Pseud.aerug. 2396): > 100 µg/mL
MIC (Kleb.pneum. A 809): 100 µg/mL (≈ 296 µM)
MIC (Strep. faec. L 80): > 100 µg/mL
MIC (Salm.dubl. P 43; [9]): 100 µg/mL (≈ 296 µM)
MIC (Staph.aureus A 2000 [2]): 15 µg/mL (≈ 44.3 µM)
MIC (Salm.typh. R 127): > 100 µg/mL
MIC (Staph.aureus A 321): 6 µg/mL (≈ 17.7 µM)
MIC (Staph.aureus A 355 [3]): 50 µg/mL (≈ 148 µM)
MIC (Prot.rettg. A 821; [9]): > 100 µg/mL
MIC (Staph.aureus A 2001 [4]): 12.5 µg/mL (≈ 36.9 µM)
MIC (Staph.aureus A 355 [5]): 15 µg/mL (≈ 44.3 µM)
MIC (Shig.equir. T 3): 12.5 µg/mL (≈ 36.9 µM)
MIC (Prot.mirab. A 1200; [9]): > 100 µg/mL
MIC [6]: > 100 µg/mL
MIC (Staph.aureus A 2001 [7]): 8 µg/mL (≈ 23.6 µM)
MIC (Prot.mirab. H 3): > 100 µg/mL
MIC (Prot.mirab. L 93): > 100 µg/mL

Cc1nc(CC(=O)N[C@@H]2C(=O)N3C(C(=O)O)=C(CN=[N+]=[N-])CS[C@H]23)no1 [Example 18, 7-[(5-methyl-1,2,4-oxadiazol-3-yl)-acetamido]-3-azidomethyl-3-cephem-4-carboxylic acid]
MIC (Strep.haem. A 266): 0.25 µg/mL (≈ 0.659 µM)
MIC (Dipl.pneum. L 54): 3 µg/mL (≈ 7.91 µM)
MIC (Bac.Subt.ATCC 6633): 1 µg/mL (≈ 2.64 µM)
MIC (Pseud.aerug. H 10): > 100 µg/mL
MIC (Haem.infl. A 1030): 6 µg/mL (≈ 15.8 µM)
MIC (Past.multo. A 723): 10 µg/mL (≈ 26.4 µM)
MIC (Esch.coli U 20; [10]): 12.5 µg/mL (≈ 33 µM)
MIC (Bruc.melit. A 488): 6 µg/mL (≈ 15.8 µM)
MIC (Staph.aureus A 2000 [1]): 1.5 µg/mL (≈ 3.95 µM)
MIC (Prot.morg. 2241): > 100 µg/mL
MIC (Pseud.aerug. 2396): > 100 µg/mL
MIC (Kleb.pneum. A 809): 6 µg/mL (≈ 15.8 µM)
MIC (Strep. faec. L 80): > 100 µg/mL
MIC (Salm.dubl. P 43; [9]): 6 µg/mL (≈ 15.8 µM)
MIC (Staph.aureus A 2000 [2]): 1.2 µg/mL (≈ 3.16 µM)
MIC (Salm.typh. R 127): 12.5 µg/mL (≈ 33 µM)
MIC (Staph.aureus A 321): 1 µg/mL (≈ 2.64 µM)
MIC (Staph.aureus A 355 [3]): 1.5 µg/mL (≈ 3.95 µM)
MIC (Prot.rettg. A 821): 12.5 µg/mL (≈ 33 µM)
MIC (Staph.aureus A 2001 [4]; [9]): 1 µg/mL (≈ 2.64 µM)
MIC (Staph.aureus A 355 [5]): 1.2 µg/mL (≈ 3.16 µM)
MIC (Shig.equir. T 3): 3 µg/mL (≈ 7.91 µM)
MIC (Prot.mirab. A 1200; [9]): 25 µg/mL (≈ 65.9 µM)
MIC [6]: > 100 µg/mL
MIC (Staph.aureus A 2001 [7]): 0.9 µg/mL (≈ 2.37 µM)
MIC (Prot.mirab. H 3): 25 µg/mL (≈ 65.9 µM)
MIC (Prot.mirab. L 93): 6 µg/mL (≈ 15.8 µM)

Reference: patent US4160829A, “Antibacterial 1,2,4-oxadiazolylacetamido cephalosporins” (Gist-Brocades N.V., priority 1972, dated 1979)
